The text below walks through data of US20260258172A1, “CATIONIC POLYMERS WITH SELECTIVE ANTIFUNGAL PROPERTIES” (Uniwersytet Jagiellonski, priority 2022, published 2026).

As usually defined, the MIC is the lowest concentration that inhibits growth of the organism.

Common to all, as to type: cell-based
Series [1] deals with 3T3-L1 murine embryonic fibroblast line. In words: Neutral red uptake toxicity test, 3T3-L1 fibroblasts. The conditions noted are these: medium with serum; for concentration at which the number of viable cells decreased to less than 50%: 24 h exposure. The protocol:
Preliminary tests were conducted in the 3T3-L1 murine embryonic fibroblast line (ATCC, CL-173™), an immortalized line (highly tolerant cells). DMEM was used as the medium. 24 h after seeding and successful adhesion, polymers dissolved in the medium were added to the cells (the medium was first replaced with a serum-free medium in serum-free experiments), and viable cells were quantified after another 24 h using the neutral red uptake assay.
The toxicity of ciclopirox and terbinafine, two commercially used antifungal drugs, was evaluated in similar conditions (the same cell line, medium composition and exposure time).

Series [2] has as its system Trichophyton mentagrophytes ATCC 18484. In words: Antifungal microdilution MIC test. The note with it: comparative test; for MIC: Trichophyton mentagrophytes, ATCC18484. The protocol: (§1) In vitro tests of the antifungal activity of the polymers were performed with respect to selected fungal species obtained from international culture collections and the microorganism collection in the Department of Infection Control and Mycology, Chair of Microbiology, Jagiellonian University Medical College. The test was performed using the microdilution method in a liquid medium on flat-bottomed, 96-well polypropylene titration plates. The applied methodology was based on antifungal susceptibility testing procedures developed by the European Committee on Antimicrobial Susceptibility Testing (EUCAST) and on the Hancock Lab procedure for antimicrobial cationic peptides.
(§2) The test compounds were dissolved in sterile distilled water and starting concentrations of 5 g/L were prepared, from which a series of two-fold dilutions in water were obtained. Respective polymer dilutions were transferred in a volume of 20 μL on titration plates (wells 1-10). 20 μL of sterile distilled water was transferred to each of wells 11 and 12. Wells 1-11 were inoculated with fungi in a volume of 180 μL of fungal cell suspensions in a liquid medium, and 180 μL of the sterile medium was transferred to well 12. Fungal suspensions were prepared from fresh cultures on agar media by collecting spores using a sterile swab into sterile distilled water or sterile distilled water with Tween-20 added. Suspensions of certain strains were filtered to remove any hyphal elements (filters with a pore diameter of 20 μm and 10 μm were used). The suspensions were brought to a density of 0.5 on the McFarland scale, and subsequently diluted to 1:20 in a liquid RPMI-1640 medium with L-glutamine and without sodium bicarbonate, supplemented with glucose (2%) and buffered morpholinopropanesulfonic acid (MOPS) (0.165 mol/L).
(§3) Final polymer concentrations on plates after adding fungal suspensions in the liquid medium were 0.49-250 mg/L or 0.98-500 mg/L.
Incubation was performed at room temperature, 27° C., 37° C., depending on the fungal species, until fungal growth was obtained in growth control (well 11). After the incubation period, fungal growth was evaluated visually and the lowest polymer concentrations that caused complete fungal growth inhibition (MIC (minimal inhibitory concentration) values) were determined.
A test was performed on selected fungal strains to compare MIC values of the PMAPTAC133 polymer with the MIC values of two known antifungal drugs (terbinafine and ciclopirox), used in the treatment of fungal infections of glabrous skin, hairy skin and nails.
The procedure described in the section above (Example 8) was used in the testing.
The drugs were dissolved in dimethyl sulfoxide (DMSO) and starting concentrations of 4 g/L were prepared, from which series of two-fold dilutions in DMSO were obtained. Respective […] concentrations were diluted to 1:100 in sterile water and subsequently transferred to wells 1-10 on a titration plate in a volume of 20 μL. Wells 11 and 12 were filled up with 20 μL DMSO diluted to 1:10 in water. Wells 1-11 were inoculated with fungi in a volume of 180 μL of fungal cell suspensions in a liquid medium, and […] of the sterile medium was transferred to well 12. Final drug concentrations on plates after adding fungal suspensions in the liquid medium were 0.008-4 mg/L.
On the technique in general: Broth dilution looks for growth in wells or tubes with falling amounts of substance.

A further series deals with Candida krusei ATCC 6258. In words: Antifungal microdilution MIC test. The note with it: Pichia kudriavzevii, ATCC6258, comparative test. The protocol:
as §1, §2, §3
(§4) Incubation was performed at room temperature, 27° C., 37° C., depending on the fungal species, until fungal growth was obtained in growth control (well 11). After the incubation period, fungal growth was evaluated visually and the lowest polymer concentrations that caused complete fungal growth inhibition (MIC (minimal inhibitory concentration) values) were determined. […]

The test system of a further series is Fusarium oxysporum 109. Nature of the series: Antifungal microdilution MIC test. The conditions noted are these: comparative test. Here is the method: as §1, §2, §3, §4
The next series concerns Fusarium solani DSM 1164. Nature of the series: Antifungal microdilution MIC test. The note with it: DSM1164, comparative test. The protocol:
as §1, §2, §3, §4

Series [3] has as its system Candida glabrata ATCC 15545. In words: Antifungal microdilution MIC test. The note with it: Nakaseomyces glabratus, ATCC15545, comparative test. Here is the method: as §1, §2, §3, §4
Series [4] relates to Fusarium oxysporum DSM 841. In words: Antifungal microdilution MIC test. The conditions noted are these: DSM841, comparative test. The protocol: as §1, §2, §3, §4
The next series relates to HaCaT cell line. Nature of the series: Neutral red uptake toxicity test, HaCaT keratinocytes. The note with it: human, 24 h, 5 μg/mL. Here is the method: The testing was performed in the HaCaT cell line, a nontumorigenic, immortalized human keratinocyte line. The DMEM medium was used in the culture, including a modification with 10% fetal bovine serum added. 24 h after seeding and successful adhesion, the polymer dissolved in the medium was added to the cells (the medium was first replaced with a serum-free medium in serum-free experiments), and viable cells were quantified after another 24 h using the neutral red uptake assay.
The toxicity of terbinafine and ciclopirox, two commercially used antifungal drugs, was evaluated in similar conditions (the same cell line, medium composition and exposure time). As for ciclopirox, the serum-free medium was not used because the drug strongly interacts with serum and testing in a serum-free medium would have been unreliable. The results are shown in graphs in FIG. 8 and FIG. 9.

Values after ≈ are worked out from the molar mass of the structure shown.

`Cc1cc(C2CCCCC2)n(O)c(=O)c1` [Ciclopirox, ciclopirox]: in series [1], the “concentration at which the number of viable cells decreased to less than 50%” value was at least 5000 ng/mL. Besides, the MIC (in series [2] (incubation time 24 h); in series [2] (incubation time 48 h); in series [2] (incubation time 72 h); against Candida krusei ATCC 6258 (incubation time 24 h); in the series on Candida krusei ATCC 6258 (incubation time 48 h); in the series on Fusarium oxysporum 109 (incubation time 24 h)) was over 4 µg/mL each time. The minimal inhibitory concentration (MIC) (in the series with Fusarium oxysporum 109 (incubation time 48 h); in the series on Fusarium solani DSM 1164 (incubation time 24 h); in the series on Fusarium solani DSM 1164 (incubation time 48 h); in series [3] (incubation time 24 h); in series [3] (incubation time 48 h); in series [4] (incubation time 24 h)) was over 4 µg/mL each time. This molecule also yielded an MIC in series [4] (incubation time 48 h) of over 4 µg/mL. Moreover, the “reduction of viable keratinocyte cells compared to the control” value in the series on HaCaT cell line is given as 30%.
In the case of `CN(C/C=C/C#CC(C)(C)C)Cc1cccc2ccccc12` [Terbinafine, terbinafine], in series [1], the “concentration at which the number of viable cells decreased to less than 50%” value is 25000 ng/mL. For the same molecule, the viable cells in series [1] (concentrations of 50, 75 and 100 μg/mL, 24 h) is listed as at most 10%. In addition, the minimal inhibitory concentration (MIC) was 0.125 µg/mL (≈ 0.429 µM) in series [2] (incubation time 24 h); 0.5 µg/mL (≈ 1.72 µM) in series [2] (incubation time 48 h); 1 µg/mL (≈ 3.43 µM) in series [2] (incubation time 72 h); over 4 µg/mL in the series on Candida krusei ATCC 6258 (incubation time 24 h); over 4 µg/mL in the series with Candida krusei ATCC 6258 (incubation time 48 h); over 4 µg/mL against Fusarium oxysporum 109 (incubation time 24 h). In addition, the minimum inhibitory concentration (MIC) (in the series with Fusarium oxysporum 109 (incubation time 48 h); in the series with Fusarium solani DSM 1164 (incubation time 24 h); with Fusarium solani DSM 1164 (incubation time 48 h); in series [3] (incubation time 24 h); in series [3] (incubation time 48 h); in series [4] (incubation time 24 h)) was over 4 µg/mL throughout. The same molecule showed a minimal inhibitory concentration (MIC) in series [4] (incubation time 48 h) of over 4 µg/mL. Also, in series [2] (incubation time 48 h), the “concentration with marginal growth” value came to 0.25 mg/L.
